Laboratory results: patent US8710088B2, “Pharmaceutical and diagnostic compositions for use in the treatment and diagnosis of neurodegenerative diseases or amyloid diseases” (Max-Delbruck-Centrum fur Molekulare Medizin, priority 2004, dated 2014)

What was measured:
[1] = biological target: T1, mutant huntingtin (GST fusion protein GST-HDQ51) (Homo sapiens, UniProt P42858, INS38QQQQQQQQQQQQQQQQQQQQQQQQQQQQQQ); assay: in vitro amyloid fibril formation of huntingtin, electron microscopy; assay type: biochemical
T1 construct: GST (N)
Protocol: (§1) As in the tests described by Heiser et al. (2002), the protein was used for aggregation tests to which either only solvent or solvent and the chemical agent in question was added. Aliquots of these batches were examined by means of the membrane filter test and electron microscopy.
(§2) As in the tests described by Heiser et al. (2002), the protein was used for aggregation tests to which either only solvent or solvent and 7-amino-8-(2,4-dihydroxy-6-methyl-phenyl)-1,9-dimethyl-phenoxazine-3-one was added. Aliquots of these batches were examined by means of the membrane filter test (FIG. 1B) and electron microscopy (FIGS. 1E and 1F).

wild type Aβ1-42 = biological target: T2, wild type Aβ1-42 (Homo sapiens, UniProt P05067); assay: aggregation assay with wild type Aβ1-42, membrane filter method; assay type: biochemical; settings: peptide 15 μM, pH 7.4, 42 h, 37° C.
T2 construct: non-mutated (wild type) Aβ1-42
Protocol: (§3) Analogously, the compounds were also examined in aggregation assays with the amyloid β-peptide Aβ1-42(E22Q), which is a particularly rapidly aggregating variant of amyloid β, as well as with non-mutated (wild type) Aβ1-42. For this purpose, the peptide was incubated at a concentration of 15 μM in a phosphate buffer with a physiological pH value of 7.4 for 42 h at 37° C. and subsequently, aliquots were examined by means of the membrane filter method (Figure) or electron microscopy (Figures) as well. […] Cell viability measurements were carried out in neuronally differentiated PC12 cells to which beta-amyloid and the substances to be tested were added extracellularly in order to examine whether the compounds are able to reduce toxicity caused by amyloid-beta. After 48 h the viability of the cells (approximately corresponds to the number of vital cells) was measured.

[2] = test system: neuronally differentiated PC12 cells; assay: toxicity of extracellular Aβ1-42 in neuronally differentiated PC12 cells, MTT test; assay type: cell-based; settings: 48 h
Protocol: as §3

[3] = biological target: T3, amyloid β-peptide Aβ1-42[E22Q] (Homo sapiens, UniProt P05067, E693Q); assay: aggregation assay with Aβ1-42[E22Q], membrane filter method or electron microscopy; assay type: biochemical; settings: 15 μM peptide, pH 7.4, 42 h, 37° C.
T3 construct: the amyloid β-peptide Aβ1-42[E22Q]
Protocol: as §3
Analogously, the compound was also examined in aggregation assays with the amyloid β-peptide Aβ1-42[E22Q] which is a particularly rapidly aggregating variant of amyloid β. For this purpose, the peptide was incubated at a concentration of 15 μM in a phosphate buffer with a physiological pH value of 7.4 for 42 h at 37° C. and subsequently, aliquots were examined by means of the membrane filter method (FIG. 1A) or electron microscopy (FIGS. 1C and 1D) as well.

[4] = biological target: T1, mutant huntingtin (GST fusion protein GST-HDQ51); assay: in vitro aggregation of mutant huntingtin, membrane filter test; assay type: biochemical; settings: membrane filter method
Protocol: as §1, §2

COS1 cells = assay: total amount of protein in the cell lysate (toxicity) in the COS1 model; assay type: cell-based
Protocol: (§4) The compounds were then tested in several cell culture models of polyglutamine diseases, inter alia Huntington's chorea. For this purpose, COS1 cells were transiently transfected with the plasmid pTL1-CAG51 already described above (Sittler, A., Walter, S., Wedemeyer, N., Hasenbank, R., Scherzinger, E., Eickhoff, H., Bates, G. P., Lehrach, H. and Wanker, E. E. (1998) Mol Cell 2, 427-36) and cultivated for 44 h in the presence of solvents or the chemical agents. Subsequently, the amount of aggregate was determined with the help of the membrane filter test as described by Heiser et al. (2002). […] The latter could be deduced from the total amount of protein in the cell lysate (FIG. 2B) which was determined with the help of cell extracts.
7-Amino-8-(2,4-dihydroxy-6-methyl-phenyl)-1,9-dimethyl-phenoxazine-3-one was then tested in a cell culture model of Huntington's chorea. […] Subsequently, the amount of aggregate was determined with the help of the membrane filter test as described by Heiser et al. (2002). […] The latter could be deduced from the total amount of protein (FIG. 2B) which was determined with the help of cell extracts.

huntingtin = biological target: T4, huntingtin (Homo sapiens, UniProt P42858, INS38QQQQQQQQQQQQQQQQQQQQQQQQQQQQQQ); assay: cell culture model of Huntington's chorea: COS1 cells transfected with pTL1-CAG51, membrane filter test; assay type: cell-based; settings: 40-44 h, membrane filter method
T4 construct: expressed in transfected cells; host or cells: COS1 cells, transient transfection
Protocol: as §4
7-Amino-8-(2,4-dihydroxy-6-methyl-phenyl)-1,9-dimethyl-phenoxazine-3-one was then tested in a cell culture model of Huntington's chorea. For this purpose, COS1 cells were transiently transfected with the plasmid pTL1-CAG51 already described above (Sittler, A., Walter, S., Wedemeyer, N., Hasenbank, R., Scherzinger, E., Eickhoff, H., Bates, G. P., Lehrach, H. and Wanker, E. E. (1998) Mol Cell 2, 427-36) and cultivated for 40-44 h in the presence of solvents or 7-amino-8-(2,4-dihydroxy-6-methyl-phenyl)-1,9-dimethyl-phenoxazine-3-one. Subsequently, the amount of aggregate was determined with the help of the membrane filter test as described by Heiser et al. (2002). […] The latter could be deduced from the total amount of protein (FIG. 2B) which was determined with the help of cell extracts.

caspases-3/-7 = assay: caspase activity in the COS1 model of Huntington's chorea, fluorogenic substrate; assay type: cell-based; settings: fluorometric
Protocol: In addition, it was examined in this cell culture model of Huntington's chorea whether the substances tested substances can cause cell damage by initiating apoptotic processes. For this purpose, the activity of two caspases (caspases-3/-7) was determined fluorometrically after addition of a fluorogenic substrate.
In addition, it was examined in this cell culture model of Huntington's chorea whether 7-amino-8-(2,4-dihydroxy-6-methyl-phenyl)-1,9-dimethyl-phenoxazine-3-one can cause cell damage by initiating apoptotic processes. For this purpose, the activity of two caspases (caspases 3 and 7) was determined fluorometrically after addition of a fluorogenic substrate.

alpha-synuclein = alpha-synuclein amyloid fibril formation, electron microscopy; assay type: biochemical; settings: wild type protein or mutant (A53T)
Description: For this purpose, the wild type protein or a mutant (A53T) was used.

neuroblastoma cells = neuroblastoma cells damaged with amyloid β-peptide; cited from earlier work
[5] = test system: ataxin-3 deletion construct (aa 221-360) with 71 glutamines; assay: ataxin-3 aggregation in COS-1 cells, filtration method; assay type: cell-based; settings: 40 h, membrane filter method
Protocol: For some compounds, a positive effect could be observed in another cell culture model of Huntington's chorea and a cell culture model of spinocerebellar ataxia (type 3). A test system based on the aggregation of an N-terminal ataxin-3 deletion construct (aa 221-360) with 71 glutamines in COS-1 cells was developed to isolate substances inhibiting the ataxin-3 aggregation. The cells were transiently transfected with the ataxin-3 expression construct and incubated in plates with 96 perforations with the added substance at 37° C. in an incubator. After 40 h the cells were harvested and lysated. The lysates were denatured in the presence of 2% SDS and analyzed using the filtration method.

amyloid-beta fibrils = amyloid-beta fibrils (Homo sapiens, UniProt P05067); assay: binding to amyloid-beta aggregates located on a cellulose acetate membrane; settings: colored substances
Description: FIG. 16: Binding to amyloid-beta aggregates located on a cellulose acetate membrane

T4 sequence (P42858 with tags, fused parts or gaps with the stated changes limits assumed): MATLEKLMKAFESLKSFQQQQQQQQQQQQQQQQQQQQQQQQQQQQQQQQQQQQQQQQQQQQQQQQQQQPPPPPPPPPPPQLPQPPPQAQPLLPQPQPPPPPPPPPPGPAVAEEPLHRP
T1 sequence (P42858 with tags, fused parts or gaps with the stated changes limits assumed): as above
T2 sequence (P05067 672-713 limits assumed): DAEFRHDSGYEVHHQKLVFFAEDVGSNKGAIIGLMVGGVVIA
T3 sequence (P05067 672-713 E693Q): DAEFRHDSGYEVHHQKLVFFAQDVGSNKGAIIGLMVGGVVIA
amyloid-beta fibrils, sequence (P05067 672-713 limits assumed): as the sequence (P05067 672-713 limits assumed) above

**Q.** With `c1cc2c3c(cccc3c1)NC(c1ccncc1)N2` [2-pyridine-4-yl-2,3-dihydro-1H-perimidine] as the compound, how does the “Inhibition of the amyloid fibril formation of huntingtin (Exon-1)” value [1] read?
**A.** The value was “Inhibition of the amyloid fibril formation”.

**Q.** For `Nc1cccc(C2=Nc3cccc4cccc(c34)N2)c1` [3-(1H-perimidine-2-yl)-phenylamine], which “Inhibition of the aggregation of wild type Aβ1-42 (SDS-insoluble aggregates)” value (wild type Aβ1-42) is on record?
**A.** Its value is “Inhibition of the aggregation”.

**Q.** And the “Inhibition of toxicity of extracellular wild type Aβ1-42” value [2]?
**A.** The value was “Inhibition of toxicity”.

**Q.** Which results are given for `Cc1cc(=O)cc2oc3cc(N)c(-c4c(C)cc(O)cc4O)c(C)c3nc1-2` [7-amino-8-(2,4-dihydroxy-6-methyl-phenyl)-1,9-dimethyl-phenoxazine-3-one]?
**A.** Inhibition of the aggregation of amyloid β-peptide Aβ1-42[E22Q] [3]: effectively inhibits the aggregation; Inhibition of the amyloid fibril formation of huntingtin (Exon-1) [1]: aggregation inhibiting effect; Inhibition of the aggregation of huntingtin (Exon-1) (SDS-insoluble aggregates) [4]: aggregation inhibiting effect; increase of total protein content (COS1 cells; COS1 cells cultivated in presence of compound): ~20%; toxic effect, deduced from total amount of protein (COS1 cells; COS1 cells, at the concentrations used): without having a toxic effect; Inhibition of the aggregation of huntingtin in mammalian cells (huntingtin): aggregation inhibiting influence; caspase activity (caspases 3 and 7) (caspases-3/-7): caspase activity was reduced

**Q.** Which results are given for `Oc1cc(O)c2c(c1)O[C@H](c1cc(O)c(O)c(O)c1)[C@H](O)C2` [EGC, (−)-Epigallocatechin]?
**A.** Inhibition of the aggregation of alpha-synuclein (amyloid fibrils) (alpha-synuclein): Inhibition of the aggregation; Inhibition of the aggregation of huntingtin (Exon-1) (SDS-insoluble aggregates) [4]: Inhibition of the aggregation

**Q.** With `O=C(O[C@@H]1Cc2c(O)cc(O)cc2O[C@@H]1c1cc(O)c(O)c(O)c1)c1cc(O)c(O)c(O)c1` [EGCG, (−)-Epigallocatechin gallate] as the compound, how does the neuroprotective effect (neuroblastoma cells) read?
**A.** The neuroprotective effect was “neuroprotective effect”.

**Q.** And the “Inhibition of the aggregation of alpha-synuclein (amyloid fibrils)” value (alpha-synuclein)?
**A.** The value was “Inhibition of the aggregation”.

**Q.** What does the source list for `Oc1cc(O)c2c(c1)O[C@@H](c1cc(O)c(O)c(O)c1)[C@H](O)C2` [GC, (−)-Gallocatechin]?
**A.** Inhibition of the aggregation of alpha-synuclein (amyloid fibrils) (alpha-synuclein): Inhibition of the aggregation; Inhibition of the aggregation of huntingtin (Exon-1) (SDS-insoluble aggregates) [4]: Inhibition of the aggregation

**Q.** Which “Inhibition of the aggregation of alpha-synuclein (amyloid fibrils)” value (alpha-synuclein) does the source give for `O=C(O[C@@H]1Cc2c(O)cc(O)cc2O[C@H]1c1cc(O)c(O)c(O)c1)c1cc(O)c(O)c(O)c1` [GCG, (−)-Gallocatechin gallate] here?
**A.** The value was “Inhibition of the aggregation”.

**Q.** For `CC(=O)N1CCN(c2ccc(OC(=O)Cc3cccs3)cc2)CC1` [Thiophene-2-yl-acetic acid 4-(4-acetyl-piperazine-1-yl)-phenyl ester], which “Inhibition of the aggregation of huntingtin in mammalian cells” value (huntingtin) is on record?
**A.** Its value is “Inhibition of the aggregation”.

**Q.** And the “Inhibition of the aggregation of ataxin-3 in mammalian cells” value [5]?
**A.** The value was “Inhibition of the aggregation”.

**Q.** Which “Inhibition of the aggregation of wild type Aβ1-42 (SDS-insoluble aggregates)” value (wild type Aβ1-42) does the source give for alpha-amino-orcein here?
**A.** The value was “Inhibition of the aggregation”.

**Q.** And the “Inhibition of the aggregation of huntingtin in mammalian cells” value (huntingtin)?
**A.** The value was “Inhibition of the aggregation”.

**Q.** And the “Inhibition of toxicity of extracellular wild type Aβ1-42” value [2]?
**A.** The value was “Inhibition of the toxicity”.

**Q.** What about the “direct binding to amyloid-beta fibrils” value (amyloid-beta fibrils) of the same compound?
**A.** The value was “bind directly to amyloid-beta fibrils”.
